Assay results: the NIST ThermoML archive (doi:10.1016/j.jct.2013.02.004)
± gives the expanded uncertainty stated by the source.

Experiment: activity coefficient (dimensionless); of the first substance listed, at infinite dilution; xn = mol fraction of the nth substance listed
Details: 101 kPa, Liquid, Chromatography, x1 = 0

SMILES	activity coefficient (308.15 K)	activity coefficient (318.15 K)	activity coefficient (328.15 K)	activity coefficient (338.15 K)	activity coefficient (348.15 K)	activity coefficient (358.15 K)	activity coefficient (368.15 K)
C1CCCC1 [cyclopentane] + CCCCCC[n+]1ccc2ccccc2c1.N#C[S-]	14.7 ± 1	13.4 ± 0.9	12.3 ± 0.8	11.5 ± 0.8	10.8 ± 0.7	10.2 ± 0.7	9.6 ± 0.65
CCOCC [diethyl ether] + CCCCCC[n+]1ccc2ccccc2c1.N#C[S-]	7.48 ± 0.51	7.07 ± 0.48	6.69 ± 0.46	6.34 ± 0.43	6.15 ± 0.42	5.91 ± 0.4	5.66 ± 0.39
CCCOCCC [dipropyl ether] + CCCCCC[n+]1ccc2ccccc2c1.N#C[S-]	15.9 ± 1.1	14.9 ± 1	14.2 ± 1	13.2 ± 0.9	12.6 ± 0.9	11.9 ± 0.8	11.3 ± 0.8
CCCCCC [hexane] + CCCCCC[n+]1ccc2ccccc2c1.N#C[S-]	46.6 ± 3.2	40.5 ± 2.8	35.6 ± 2.4	31.6 ± 2.2	28.3 ± 1.9	25.4 ± 1.7	23.1 ± 1.6
CC1CCCCC1 [methylcyclohexane] + CCCCCC[n+]1ccc2ccccc2c1.N#C[S-]	24.2 ± 1.7	21.5 ± 1.5	19.8 ± 1.4	17.7 ± 1.2	16.4 ± 1.1	15.2 ± 1	14 ± 1
CCCCCCCCC [nonane] + CCCCCC[n+]1ccc2ccccc2c1.N#C[S-]	79.7 ± 5.5	73.2 ± 5	68.2 ± 4.7	62.5 ± 4.3	59 ± 4	54.5 ± 3.7	51.3 ± 3.5
CCCCCCCC [octane] + CCCCCC[n+]1ccc2ccccc2c1.N#C[S-]	64.1 ± 4.4	58 ± 4	53.3 ± 3.7	48.3 ± 3.3	45.7 ± 3.1	42.1 ± 2.9	38.6 ± 2.6
CCCC(C)=O [pentan-2-one] + CCCCCC[n+]1ccc2ccccc2c1.N#C[S-]			2.1 ± 0.14	2.11 ± 0.14	2.12 ± 0.14	2.12 ± 0.14	2.13 ± 0.14
c1ccncc1 [pyridine] + CCCCCC[n+]1ccc2ccccc2c1.N#C[S-]			0.703 ± 0.047	0.713 ± 0.048	0.722 ± 0.048	0.729 ± 0.048	0.745 ± 0.049
Cc1ccccc1 [toluene] + CCCCCC[n+]1ccc2ccccc2c1.N#C[S-]			2.05 ± 0.14	2.07 ± 0.14	2.08 ± 0.14	2.1 ± 0.14	2.11 ± 0.14

Next, values leading:

activity coefficient (308.15 K)	activity coefficient (318.15 K)	activity coefficient (328.15 K)	activity coefficient (338.15 K)	activity coefficient (348.15 K)	activity coefficient (358.15 K)	activity coefficient (368.15 K)	SMILES
7.2 ± 0.49	6.9 ± 0.47	6.6 ± 0.45	6.2 ± 0.42	5.9 ± 0.4	5.7 ± 0.39	5.5 ± 0.37	C1=CCCCC1 [cyclohexene] + CCCCCC[n+]1ccc2ccccc2c1.N#C[S-]
18.8 ± 1.3	17.5 ± 1.2	16.5 ± 1.1	15.4 ± 1.1	14.5 ± 1	13.7 ± 0.9	12.9 ± 0.9	C1CCCCCCC1 [cyclooctane] + CCCCCC[n+]1ccc2ccccc2c1.N#C[S-]
105 ± 7	96.7 ± 6.6	90.4 ± 6.2	84.1 ± 5.8	78.4 ± 5.4	73.4 ± 5	68.1 ± 4.7	CCCCCCCCCC [decane] + CCCCCC[n+]1ccc2ccccc2c1.N#C[S-]
23.7 ± 1.6	21.2 ± 1.4	20.5 ± 1.4	17.6 ± 1.2	16.5 ± 1.1	15.7 ± 1.1	14.1 ± 1	CC(C)OC(C)C [diisopropyl ether] + CCCCCC[n+]1ccc2ccccc2c1.N#C[S-]
		0.6 ± 0.042	0.59 ± 0.042	0.581 ± 0.041	0.574 ± 0.041	0.566 ± 0.041	CCO [ethanol] + CCCCCC[n+]1ccc2ccccc2c1.N#C[S-]
		3.08 ± 0.21	3.07 ± 0.21	3.07 ± 0.21	3.06 ± 0.21	3.05 ± 0.21	CCc1ccccc1 [ethylbenzene] + CCCCCC[n+]1ccc2ccccc2c1.N#C[S-]
53 ± 3.6	47 ± 3.2	42.5 ± 2.9	38 ± 2.6	35.2 ± 2.4	32 ± 2.2	29.1 ± 2	CCCCCCC [heptane] + CCCCCC[n+]1ccc2ccccc2c1.N#C[S-]
20.2 ± 1.4	18.2 ± 1.2	16.9 ± 1.2	15.4 ± 1.1	14.4 ± 1	13.3 ± 0.9	12.3 ± 0.8	C=CCCCC [hex-1-ene] + CCCCCC[n+]1ccc2ccccc2c1.N#C[S-]
		0.381 ± 0.033	0.378 ± 0.033	0.375 ± 0.033	0.376 ± 0.033	0.37 ± 0.033	CO [methanol] + CCCCCC[n+]1ccc2ccccc2c1.N#C[S-]
30.2 ± 2.1	28.5 ± 1.9	27.1 ± 1.9	25.6 ± 1.8	24.4 ± 1.7	23.2 ± 1.6	22.2 ± 1.5	C=CCCCCCC [oct-1-ene] + CCCCCC[n+]1ccc2ccccc2c1.N#C[S-]
		2.1 ± 0.14	2.11 ± 0.14	2.13 ± 0.14	2.15 ± 0.15	2.15 ± 0.15	CCC(=O)CC [pentan-3-one] + CCCCCC[n+]1ccc2ccccc2c1.N#C[S-]
		0.693 ± 0.047	0.681 ± 0.046	0.671 ± 0.045	0.664 ± 0.045	0.653 ± 0.045	CCCO [propan-1-ol] + CCCCCC[n+]1ccc2ccccc2c1.N#C[S-]
		1.46 ± 0.1	1.47 ± 0.1	1.48 ± 0.1	1.48 ± 0.1	1.5 ± 0.1	C1CCOC1 [tetrahydrofuran] + CCCCCC[n+]1ccc2ccccc2c1.N#C[S-]
		0.921 ± 0.058	0.943 ± 0.059	0.963 ± 0.061	0.98 ± 0.06	0.998 ± 0.062	c1ccsc1 [thiophene] + CCCCCC[n+]1ccc2ccccc2c1.N#C[S-]
		0.401 ± 0.034	0.406 ± 0.034	0.41 ± 0.03	0.399 ± 0.034	0.418 ± 0.035	O [water] + CCCCCC[n+]1ccc2ccccc2c1.N#C[S-]
